We go through 7 compounds from ChEMBL document CHEMBL5465560, “Selectivity Literature for EUbOPEN Chemogenomic Library” (2024).

The structures appear in SMILES notation.

Experiment [1] deals with Tyrosine-protein kinase JAK1 (Homo sapiens, UniProt P23458). The experiment is described as follows: Selectivity interaction (Ambit KINOMEscan and KiNATiv profiling in Jurkat cells) EUB0000090b JAK1. It counts as cell-based. The following applies: at 1 µM.
For experiment [2], the target named is Proto-oncogene tyrosine-protein kinase ROS (Homo sapiens) (UniProt P08922). The experiment is described as follows: Selectivity interaction (KinomeScan (DiscoverX)) EUB0000607a ROS1. The following applies: at 10 µM.
Sequence of Proto-oncogene tyrosine-protein kinase ROS (Homo sapiens) (P08922 whole entry): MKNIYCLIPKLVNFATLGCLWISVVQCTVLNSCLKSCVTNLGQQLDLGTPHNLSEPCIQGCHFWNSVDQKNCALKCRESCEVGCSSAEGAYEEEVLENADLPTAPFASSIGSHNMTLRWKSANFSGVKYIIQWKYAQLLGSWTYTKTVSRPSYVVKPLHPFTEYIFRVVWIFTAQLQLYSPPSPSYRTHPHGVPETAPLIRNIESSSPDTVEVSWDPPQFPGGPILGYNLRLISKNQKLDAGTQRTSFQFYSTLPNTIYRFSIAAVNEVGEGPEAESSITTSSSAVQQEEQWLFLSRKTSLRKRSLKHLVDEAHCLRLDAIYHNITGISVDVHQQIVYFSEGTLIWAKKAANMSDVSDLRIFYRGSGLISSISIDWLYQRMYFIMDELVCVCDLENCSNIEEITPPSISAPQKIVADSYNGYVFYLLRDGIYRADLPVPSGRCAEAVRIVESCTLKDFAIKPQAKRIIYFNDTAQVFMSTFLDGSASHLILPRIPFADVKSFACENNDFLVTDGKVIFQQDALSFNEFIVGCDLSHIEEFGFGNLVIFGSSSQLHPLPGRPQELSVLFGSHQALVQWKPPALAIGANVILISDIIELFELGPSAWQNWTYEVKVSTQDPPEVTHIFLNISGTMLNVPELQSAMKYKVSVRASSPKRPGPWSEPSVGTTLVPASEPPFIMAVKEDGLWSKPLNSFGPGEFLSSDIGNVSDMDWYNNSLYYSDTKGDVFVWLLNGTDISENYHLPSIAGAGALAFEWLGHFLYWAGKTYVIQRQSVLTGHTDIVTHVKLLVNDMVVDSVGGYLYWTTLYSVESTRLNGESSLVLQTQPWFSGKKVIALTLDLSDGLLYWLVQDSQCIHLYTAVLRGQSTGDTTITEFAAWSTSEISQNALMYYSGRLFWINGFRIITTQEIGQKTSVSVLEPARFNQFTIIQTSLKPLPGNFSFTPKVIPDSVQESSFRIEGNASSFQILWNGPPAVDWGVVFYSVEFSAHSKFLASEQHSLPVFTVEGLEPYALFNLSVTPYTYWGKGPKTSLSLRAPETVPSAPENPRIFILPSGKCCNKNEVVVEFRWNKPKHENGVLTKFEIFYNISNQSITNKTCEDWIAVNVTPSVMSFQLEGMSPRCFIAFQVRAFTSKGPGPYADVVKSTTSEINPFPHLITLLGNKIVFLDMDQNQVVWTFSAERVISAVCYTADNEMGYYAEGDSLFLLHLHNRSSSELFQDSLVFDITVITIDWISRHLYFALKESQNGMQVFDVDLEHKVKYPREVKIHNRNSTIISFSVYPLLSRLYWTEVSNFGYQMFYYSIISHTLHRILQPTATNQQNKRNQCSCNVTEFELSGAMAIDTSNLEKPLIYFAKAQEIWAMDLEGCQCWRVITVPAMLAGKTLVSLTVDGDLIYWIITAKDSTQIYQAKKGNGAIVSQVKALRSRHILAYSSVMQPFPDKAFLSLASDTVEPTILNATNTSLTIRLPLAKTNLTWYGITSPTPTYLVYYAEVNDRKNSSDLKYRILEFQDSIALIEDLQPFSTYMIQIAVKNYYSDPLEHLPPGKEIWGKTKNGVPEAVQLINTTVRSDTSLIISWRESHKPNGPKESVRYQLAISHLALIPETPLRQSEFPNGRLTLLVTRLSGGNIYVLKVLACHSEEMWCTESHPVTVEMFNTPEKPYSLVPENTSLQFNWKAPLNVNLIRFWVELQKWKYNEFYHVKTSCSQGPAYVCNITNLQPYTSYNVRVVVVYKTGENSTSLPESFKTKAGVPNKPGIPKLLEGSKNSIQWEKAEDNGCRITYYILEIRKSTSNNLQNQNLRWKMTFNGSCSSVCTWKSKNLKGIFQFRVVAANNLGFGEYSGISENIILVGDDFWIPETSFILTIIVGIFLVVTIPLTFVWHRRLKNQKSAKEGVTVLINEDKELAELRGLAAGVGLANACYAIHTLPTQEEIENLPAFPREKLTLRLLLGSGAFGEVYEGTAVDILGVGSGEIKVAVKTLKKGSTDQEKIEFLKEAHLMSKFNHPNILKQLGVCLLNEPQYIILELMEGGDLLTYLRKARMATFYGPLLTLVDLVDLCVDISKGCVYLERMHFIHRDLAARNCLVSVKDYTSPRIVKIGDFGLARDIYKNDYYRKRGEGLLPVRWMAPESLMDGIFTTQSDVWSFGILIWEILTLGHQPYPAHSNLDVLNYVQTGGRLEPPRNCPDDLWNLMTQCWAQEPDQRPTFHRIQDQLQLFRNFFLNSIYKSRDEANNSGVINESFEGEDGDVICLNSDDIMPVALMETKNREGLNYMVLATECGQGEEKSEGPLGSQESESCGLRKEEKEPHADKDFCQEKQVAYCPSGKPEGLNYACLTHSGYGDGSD
Experiment [3] has as its target T1, Histone-lysine N-methyltransferase NSD3 (Homo sapiens) (UniProt Q9BZ95).
T1 sequence (whole entry): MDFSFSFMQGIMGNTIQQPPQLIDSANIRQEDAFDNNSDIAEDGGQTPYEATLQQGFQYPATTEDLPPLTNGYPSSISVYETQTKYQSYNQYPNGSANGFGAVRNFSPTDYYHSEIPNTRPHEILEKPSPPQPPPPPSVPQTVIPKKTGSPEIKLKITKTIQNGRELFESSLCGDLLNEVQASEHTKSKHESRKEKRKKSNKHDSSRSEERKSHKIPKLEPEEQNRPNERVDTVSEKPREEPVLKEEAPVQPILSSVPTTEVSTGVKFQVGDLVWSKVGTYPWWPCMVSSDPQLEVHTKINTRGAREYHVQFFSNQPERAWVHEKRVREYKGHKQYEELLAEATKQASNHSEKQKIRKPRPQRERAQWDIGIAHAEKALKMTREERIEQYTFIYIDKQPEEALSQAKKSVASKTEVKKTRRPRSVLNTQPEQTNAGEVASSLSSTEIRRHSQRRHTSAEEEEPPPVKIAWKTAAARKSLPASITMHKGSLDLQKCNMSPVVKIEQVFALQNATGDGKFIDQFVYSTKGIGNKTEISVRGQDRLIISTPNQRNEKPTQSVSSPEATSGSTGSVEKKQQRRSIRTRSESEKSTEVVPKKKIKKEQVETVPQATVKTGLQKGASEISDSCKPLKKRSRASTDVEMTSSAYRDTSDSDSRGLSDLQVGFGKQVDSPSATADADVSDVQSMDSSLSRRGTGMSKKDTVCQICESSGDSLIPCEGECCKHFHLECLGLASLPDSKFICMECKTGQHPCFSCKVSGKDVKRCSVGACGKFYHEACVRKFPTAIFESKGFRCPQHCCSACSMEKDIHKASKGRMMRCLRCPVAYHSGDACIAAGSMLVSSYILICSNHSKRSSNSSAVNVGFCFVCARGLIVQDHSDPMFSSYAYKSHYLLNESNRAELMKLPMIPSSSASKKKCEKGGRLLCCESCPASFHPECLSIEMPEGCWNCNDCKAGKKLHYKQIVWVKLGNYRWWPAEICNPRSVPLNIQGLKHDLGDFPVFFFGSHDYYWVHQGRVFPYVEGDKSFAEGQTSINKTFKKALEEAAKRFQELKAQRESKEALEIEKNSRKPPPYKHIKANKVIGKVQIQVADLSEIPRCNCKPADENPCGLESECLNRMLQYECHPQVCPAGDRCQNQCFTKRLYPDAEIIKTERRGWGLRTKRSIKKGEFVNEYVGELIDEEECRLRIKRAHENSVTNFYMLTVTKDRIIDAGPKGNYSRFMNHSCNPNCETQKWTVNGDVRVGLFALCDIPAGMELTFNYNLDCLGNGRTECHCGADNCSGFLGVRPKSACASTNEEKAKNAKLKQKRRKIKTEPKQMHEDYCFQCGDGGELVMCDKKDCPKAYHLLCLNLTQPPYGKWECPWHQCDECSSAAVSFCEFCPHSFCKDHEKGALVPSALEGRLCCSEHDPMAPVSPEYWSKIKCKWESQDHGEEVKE
As to conditions: at 1 µM.

Experiment [4] deals with T2, Phosphatidylinositol 5-phosphate 4-kinase type-2 gamma (Homo sapiens) (UniProt Q8TBX8).
T2 sequence (whole entry): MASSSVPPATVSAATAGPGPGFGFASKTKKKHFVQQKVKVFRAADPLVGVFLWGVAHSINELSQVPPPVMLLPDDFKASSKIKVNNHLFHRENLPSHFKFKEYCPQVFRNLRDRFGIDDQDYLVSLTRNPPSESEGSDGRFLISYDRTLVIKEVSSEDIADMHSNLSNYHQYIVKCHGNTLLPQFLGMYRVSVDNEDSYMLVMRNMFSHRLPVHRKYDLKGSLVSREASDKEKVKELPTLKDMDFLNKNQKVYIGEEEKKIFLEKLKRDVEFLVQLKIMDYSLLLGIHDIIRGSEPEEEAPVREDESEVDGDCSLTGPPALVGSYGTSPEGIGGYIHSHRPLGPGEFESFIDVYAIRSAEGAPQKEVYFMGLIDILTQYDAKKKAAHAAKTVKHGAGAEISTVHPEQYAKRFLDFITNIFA
The experiment is described as follows: Selectivity interaction (ActivX KiNativ screen (kinase selectivity in THP-1 cell lysates)) EUB0000639a PIP4K2C. It counts as subcellular. As to conditions: lysate, at 5 µM.

The target of experiment [5] is RAC-alpha serine/threonine-protein kinase (Homo sapiens, UniProt P31749).
Sequence of RAC-alpha serine/threonine-protein kinase (P31749 whole entry): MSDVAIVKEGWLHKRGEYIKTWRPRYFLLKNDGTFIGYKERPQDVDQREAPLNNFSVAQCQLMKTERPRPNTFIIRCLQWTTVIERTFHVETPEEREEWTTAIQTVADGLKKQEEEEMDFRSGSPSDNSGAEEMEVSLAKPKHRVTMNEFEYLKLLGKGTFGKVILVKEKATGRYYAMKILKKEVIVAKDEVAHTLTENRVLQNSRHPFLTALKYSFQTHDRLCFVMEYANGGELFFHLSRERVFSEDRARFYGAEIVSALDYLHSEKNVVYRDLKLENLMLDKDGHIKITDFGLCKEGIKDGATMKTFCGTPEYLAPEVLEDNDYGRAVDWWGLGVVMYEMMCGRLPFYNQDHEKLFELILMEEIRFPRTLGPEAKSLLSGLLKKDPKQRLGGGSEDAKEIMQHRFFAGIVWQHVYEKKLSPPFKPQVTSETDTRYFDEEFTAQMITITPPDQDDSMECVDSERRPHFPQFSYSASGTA
For experiment [6], the target named is Cyclin-dependent kinase-like 1 (Homo sapiens) (UniProt Q00532). The experiment can be described thus: Selectivity interaction (KinomeScan (DiscoverX)) EUB0001049a CDKL1. As to conditions: at 1 µM.
Sequence of Cyclin-dependent kinase-like 1 (Homo sapiens) (Q00532 whole entry): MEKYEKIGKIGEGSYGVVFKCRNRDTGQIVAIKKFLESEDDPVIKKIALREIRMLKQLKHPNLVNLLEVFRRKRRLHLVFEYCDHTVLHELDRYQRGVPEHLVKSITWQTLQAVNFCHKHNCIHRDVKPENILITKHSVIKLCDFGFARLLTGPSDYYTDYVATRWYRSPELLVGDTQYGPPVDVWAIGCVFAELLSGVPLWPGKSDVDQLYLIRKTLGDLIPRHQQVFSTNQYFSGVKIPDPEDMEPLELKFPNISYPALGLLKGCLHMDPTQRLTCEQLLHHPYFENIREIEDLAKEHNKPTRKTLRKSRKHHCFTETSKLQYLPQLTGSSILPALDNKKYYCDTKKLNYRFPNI
Experiment [7] addresses Macrophage colony-stimulating factor 1 receptor (Homo sapiens) (UniProt P07333). The experiment can be described thus: Selectivity interaction (KinomeScan (DiscoverX)) EUB0000618a CSF1R. The following applies: at 10 µM.

Sequence of Macrophage colony-stimulating factor 1 receptor (Homo sapiens) (P07333 whole entry): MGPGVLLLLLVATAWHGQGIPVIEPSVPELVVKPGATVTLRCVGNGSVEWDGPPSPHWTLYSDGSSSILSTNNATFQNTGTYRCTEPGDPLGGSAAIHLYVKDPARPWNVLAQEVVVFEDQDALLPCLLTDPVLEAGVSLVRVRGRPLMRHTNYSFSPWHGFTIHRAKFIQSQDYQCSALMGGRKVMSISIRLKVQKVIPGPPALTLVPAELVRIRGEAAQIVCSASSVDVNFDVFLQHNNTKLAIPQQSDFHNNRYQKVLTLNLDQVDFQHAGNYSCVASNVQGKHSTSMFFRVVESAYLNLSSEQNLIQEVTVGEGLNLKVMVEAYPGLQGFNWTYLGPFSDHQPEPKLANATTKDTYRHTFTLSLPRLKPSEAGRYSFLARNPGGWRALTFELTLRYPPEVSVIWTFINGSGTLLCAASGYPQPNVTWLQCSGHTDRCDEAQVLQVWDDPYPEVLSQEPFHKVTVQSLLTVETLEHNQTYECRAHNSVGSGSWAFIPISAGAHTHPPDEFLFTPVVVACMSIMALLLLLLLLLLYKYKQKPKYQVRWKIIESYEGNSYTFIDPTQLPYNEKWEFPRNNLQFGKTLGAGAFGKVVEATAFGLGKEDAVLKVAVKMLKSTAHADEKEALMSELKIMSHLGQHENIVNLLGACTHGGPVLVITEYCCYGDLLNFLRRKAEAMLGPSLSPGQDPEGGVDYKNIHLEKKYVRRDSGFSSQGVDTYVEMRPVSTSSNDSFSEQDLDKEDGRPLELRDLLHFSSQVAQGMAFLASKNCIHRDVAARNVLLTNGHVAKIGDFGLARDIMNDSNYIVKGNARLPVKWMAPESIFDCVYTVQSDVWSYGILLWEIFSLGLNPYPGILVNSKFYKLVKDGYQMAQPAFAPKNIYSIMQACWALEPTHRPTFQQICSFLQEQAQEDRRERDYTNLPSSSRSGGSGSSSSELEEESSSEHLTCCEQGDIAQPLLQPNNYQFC

`CN(C)C/C=C/C(=O)Nc1ccc(C(=O)N2CCCC(Nc3ncc(Cl)c(-c4c[nH]c5ccccc45)n3)C2)cc1` (configuration not stated) yielded a % of control in experiment [1] of 86%.
In experiment [2], `CNC(=O)Nc1ccc(-c2nc(N3CC4CCC(C3)O4)c3cnn(C4CCC5(CC4)OCCO5)c3n2)cc1` yielded a % of control of 81%.
Turning to `CNCCN1CCC(c2cc(CN(C)C(=O)c3cccc(Oc4ccccc4)c3)ccn2)CC1`, in experiment [3], the % activity was above 90%.
Turning to `CC[C@@H]1[C@H](F)C(=O)N[C@@H]1COc1nccc2cc(C(N)=O)c(OC)cc12` [ZIMLOVISERTIB], the % of inhibition in experiment [4] is 87.4%.
For the compound `CCc1cccc(CC)c1NC(=O)c1nn(C)c2c1CCc1cnc(Nc3ccc(C(=O)NC4CCN(C)CC4)cc3OC(F)(F)F)nc1-2`, in experiment [5], the IC50 was above 10 µM.
Compound `COc1cc(Nc2nc(C)cc(-c3cnn4nc(OC)ccc34)n2)cc(C(F)(F)F)c1` returned a % of control in experiment [6] of 73%.
As for `O[C@H]1CC[C@H](Nc2ncc3nc(Nc4c(F)cc(F)cc4F)n([C@H]4CCOC4)c3n2)CC1`, the % of control in experiment [7] worked out at 64%.
